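Cultured in 96-well plates, cells were exposed to test compound for 48 hours across five concentrations. GI50: concentration for 50% inhibition of growth. TGI is the concentration that stops growth completely.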
What was measured:
Test in all cases: inhibition of tumour cell growth, NCI panel, 48 h
MCF7 breast = test system: MCF7 breast
DU-145 prostate = test system: DU-145 prostate
NCI/ADR-RES ovarian = test system: NCI/ADR-RES ovarian
LXFL 529 NSCLC = test system: LXFL 529 NSCLC
HOP-18 NSCLC = test system: HOP-18 NSCLC
KM20L2 colon = test system: KM20L2 colon
DMS 114 small cell lung = test system: DMS 114 small cell lung
RXF-631 renal = test system: RXF-631 renal
MDA-N = test system: MDA-N

Structure (SMILES)	GI50 (MCF7 breast) [nM]	TGI (MCF7 breast) [µM]	GI50 (DU-145 prostate) [nM]	TGI (DU-145 prostate) [µM]	GI50 (NCI/ADR-RES ovarian) [nM]	TGI (NCI/ADR-RES ovarian) [µM]	other results
COC(=O)[C@H](C[C@H](Cc1ccccc1)NC(=O)c1csc([C@@H](C[C@H](C(C)C)N(C)C(=O)[C@@H](NC(=O)[C@H]2CCCCN2C)C(C)C)OC(C)=O)n1)NC(=O)OCc1ccccc1	< 0.9	> 9	< 0.9	1.31	33.3	1.52	
COc1ccc2nc(-c3cccs3)cc(C(O)CN3CCSCC3)c2c1 (stereo unspecified)							TGI (LXFL 529 NSCLC): 91.8 µM; TGI (HOP-18 NSCLC): 54.7 µM; TGI (KM20L2 colon): 45.5 µM; TGI (DMS 114 small cell lung): 38.7 µM
COc1ccc2c(c1)cn1c3ccc(O)cc3nc(N)c21	615	4.99	240	5.43	200	3.33	
Oc1cccc2ccc(N/N=C/c3cc(CN4CCCCC4)c(O)c4ncccc34)nc12	34	1.28	109	3.18	46.3	1.06	
CC1=C(Oc2ccccc2)C(CCC(=O)O)c2c(O)cc(Cl)c(O)c21 (stereo unspecified)							TGI (KM20L2 colon): > 100 µM; TGI (DMS 114 small cell lung): > 100 µM; TGI (RXF-631 renal): > 100 µM
NCCn1c(=O)[nH]c(=O)[nH]c1=S	61100	> 100	> 100000	> 100	> 100000	> 100	
C[C@@H]1C[C@H]2CC[C@H](O2)[C@H](C)C(=O)O[C@@H](C)C[C@@H]2CC[C@@H](O2)[C@@H](C)C(=O)O[C@H](C)C[C@H]2CC[C@H](O2)[C@H](C)C(=O)O[C@@H](C)C[C@@H]2CC[C@@H](O2)[C@@H](C)C(=O)O1		> 100		> 100		21	TGI (MDA-N): > 100 µM
Cc1ccc(NC(=O)C(=O)C(C#N)c2ccccc2C)cc1C (stereo unspecified)							TGI (LXFL 529 NSCLC): > 100 µM; TGI (HOP-18 NSCLC): > 100 µM; TGI (KM20L2 colon): > 100 µM; TGI (DMS 114 small cell lung): > 59.2 µM
CCN(CC)c1ccc(C(=O)c2ccccc2C(=O)O)c(O)c1							TGI (LXFL 529 NSCLC): > 100 µM; TGI (DMS 114 small cell lung): > 100 µM
O=C1c2cccnc2C(=O)c2nc3cc(N4CCN(C5CC5)CC4)ccc3nc21	276	1.78	242	0.833	1950	8.14	
Cc1ccc(-c2cn3ccnc3c(-c3ccc(Cl)cc3)n2)cc1	280	19.2	214	52.9	102	> 30.6	
CC1OC(O[C@@H]2OC=C(C=O)[C@@]3(O)CC[C@H](C)[C@@H]23)C(O)C(O)C1O (stereo partly specified)		> 100		> 100		> 100	TGI (MDA-N): > 100 µM
O=[N+]([O-])C1C2C=CC(C2)[C@H]1c1ccco1 (stereo partly specified)							TGI (LXFL 529 NSCLC): > 100 µM; TGI (KM20L2 colon): > 100 µM; TGI (DMS 114 small cell lung): > 100 µM
O=C1CC(c2ccc(O)cc2)C2(O1)C(=O)OC(C(O)CO)C2O (stereo unspecified)		> 100		> 100		> 100	
CC[C@@H](C(=O)O)C1CC[C@H](C)C([C@@H](C)[C@H](O)[C@H](C)C(=O)[C@H](CC)C2O[C@]3(C=C[C@@H](O)[C@]4(CC[C@@](C)(C5CC[C@](O)(CC)[C@H](C)O5)O4)O3)[C@H](C)C[C@@H]2C)O1 (stereo partly specified)	110	13.9	805	32.4	443	34.7	
CN(C)CCNc1c2c(c(NCCN(C)C)c3[nH]ccc13)C(=O)c1ccccc1C2=O	371		587	3.1	887		

Structure (SMILES)	GI50 (MCF7 breast) [nM]	TGI (MCF7 breast) [µM]	GI50 (DU-145 prostate) [nM]	TGI (DU-145 prostate) [µM]	GI50 (NCI/ADR-RES ovarian) [nM]	TGI (NCI/ADR-RES ovarian) [µM]	other results
Cn1cccc1-c1cc(-c2cccs2)nc(N)c1C#N	> 100000	> 100	> 100000	> 100	> 100000	> 100	
COc1ccc(/C(C#N)=C/c2ccccc2OC)cc1	4300	> 100	27700	> 100	3660	> 100	
CCCCCCCCCCC(C(=O)O)C1(C(=O)O)CCC(=O)O1 (stereo unspecified)		> 100		> 100		> 100	TGI (MDA-N): > 100 µM
Cn1cc(-c2ccc3occ(-c4cccc(-c5ccncc5)c4)c3n2)cn1	419	> 100	2650	> 100	368	> 100	
Cc1ccc(N=Nc2c(O)c(C(=O)O)cc3ccccc23)cc1C		> 100				> 100	
COc1ccc(OC)c(/C=C2\SC(=S)NC2=O)c1	23500	> 100	20000	74.3	25400	87.5	
COC(=O)[C@@]1(C)CC[C@]2(C)CC[C@]3(C)C4=CC=C5C(=CC(=O)C(O)=C5C)[C@]4(C)[C@@H](O)C[C@@]3(C)[C@@H]2C1	11300	23.9	12300	23.3	15300	34.8	
COc1ccc2c(c1)/C(=C\c1c(C)nc3sccn13)C(=O)N2		> 100	550	> 100		> 42.2	
CC(CCC(=O)O)[C@H]1CCC2[C@@H]3CC[C@@H]4CC(O)CC[C@]4(C)C3CC[C@@]21C (stereo partly specified)	30200	> 100	44400	> 100	54300	> 100	GI50 (MDA-N): 60.6 µM; TGI (MDA-N): > 100 µM
CC(C)[C@H]1CO[C@]2(C)[C@@H]3CN(Cc4ccccc4)C[C@@H]3C(=O)N12							TGI (LXFL 529 NSCLC): > 100 µM; TGI (HOP-18 NSCLC): > 100 µM; TGI (KM20L2 colon): > 100 µM; TGI (DMS 114 small cell lung): > 100 µM
C1C[OH+]CC[OH+]CCNCC[OH+]CC[OH+]CCN1.N.[Cl-].[Pt+4]							GI50 (LXFL 529 NSCLC): 18.2 µM; TGI (LXFL 529 NSCLC): 64 µM; GI50 (HOP-18 NSCLC): 19.9 µM; TGI (HOP-18 NSCLC): > 100 µM; GI50 (KM20L2 colon): 30.3 µM; TGI (KM20L2 colon): > 100 µM
COc1ccc(/C=C2\CCCC3=C2N=C2SC(C)=NN2C3c2ccc(OC)c(OC)c2)cc1OC (stereo unspecified)	3040	> 100	10700	> 100	4710	> 100	
COc1cc(C2CC(c3ccc4c(c3)OCO4)=NN2C=O)cc(OC)c1OC (stereo unspecified)	1340	> 100	2630	> 26.1	1130	> 20.1	
O=C(/C=C/c1ccccc1)c1cc(Br)ccc1O		31.5		28.4		34.9	TGI (MDA-N): 33.3 µM
O=C1[C@H]2ON(c3ccccc3)C(c3ccccc3Cl)[C@H]2C(=O)N1c1ccc(Cc2ccc(N3C(=O)[C@@H]4ON(c5ccccc5)C(c5ccccc5Cl)[C@@H]4C3=O)cc2)cc1 (stereo partly specified)							TGI (LXFL 529 NSCLC): > 100 µM; TGI (HOP-18 NSCLC): > 100 µM; TGI (KM20L2 colon): > 100 µM; TGI (DMS 114 small cell lung): > 100 µM

Source: PubChem BioAssay (NCI)
